# Source: patent US20190060330A1, “APPLICATION OF 4-HYDROXY SALICYLANILIDE IN PREPARATION OF ANTI-MYELOMA OR ANTI-LYMPHOMA DRUGS” (priority 2016, published 2019)
# Several values for one entry are separate records, joined by “and”; a condition that tells them apart may be missing. Equal values may be shown once.
# What was measured:
# OCI-LY1 cells = test: CCK8 cytotoxicity, OCI-LY1 lymphoma cells; type: cell-based; conditions: Homo sapiens, 72 h
# Procedure: (§1) A single-cell suspension of human multiple myeloma cells (H929 cells, OPM2 cells, U266 cells, OCI-MY5 cells, RPMI 8266 cells) was taken for cell counting, and the cell concentration was adjusted to 2×10^5 cells/mL. 95 μL of the above cell suspension was added into each well of a 96-well culture plate, and then 5 μL of the drug prepared with the medium was added at different concentrations, while the same volume of culture medium was added in the control group. Three parallel wells were set in each group. The plate was subjected to continuous culture for 72 h. 2 hours before the end of the culture, 10 μL of CCK8 reagent was added into each well, and the plate was continued to culture in a CO2 incubator. After 2 hours, the OD value of each well at 450 nm was detected by an automatic microplate reader. Cell viability and inhibition rate were calculated: cell viability (%)=(OD mean of experimental well/OD mean of control well)×100%. Cell inhibition rate (%)=100%−cell viability (%). The fitting function was used to determine the IC50 of the drug concentration when the cell growth was inhibited by 50%. The experiment was in triplicate.
# (§2) Cell lines: human lymphoma cells (SUDHL-4 cells, OCI-LY1 cells, OCI-LY8 cells, DB cells, NU-DUL-1 cells, U2932 cells, TMD8 cells)(from ATCC. USA. The cells were passaged and preserved in the applicant's laboratory). IMDM (Gibco Co., USA). […]
# TMD8 cells = test: CCK8 cytotoxicity, TMD8 lymphoma cells; type: cell-based; conditions: Homo sapiens, 72 h
# Procedure: as §1, §2
# H929 cells [1] = test: CCK8 cytotoxicity, H929 multiple myeloma cells; type: cell-based; conditions: Homo sapiens, NCI-H929, 72 h
# Procedure: (§3) (1) Cell lines: human multiple myeloma cells (H929 cells, OPM2 cells, U266 cells, OCI-MY5 cells, RPMI 8266 cells) (from ATCC of USA. The cells were passaged and preserved in the applicant's laboratory), were cultured in a 1640 culture medium (containing 10% fetus bovine serum).
# (§4) The cells were cultured in 1640 medium (containing 10% fetal bovine serum, pH 7.2) supplemented with 2 mmol/L glutamine. The cells were cultured in a cell culture incubator at 37° C., 5% CO2.
# as §1, with “Cell viability and inhibition rate were calculated: cell viability (%)=(OD mean of experimental well/OD mean of control well)×100%. Cell inhibition rate (%)=100%−cell viability (%). The fitting function was used to determine the IC50 of the drug concentration when the cell growth was inhibited by 50%. The experiment was in triplicate.” left out
# RPMI 8266 cells = test: CCK8 cytotoxicity, RPMI 8266 multiple myeloma cells; type: cell-based; conditions: Homo sapiens, RPMI8266, 72 h
# Procedure: as §3, §4
# as §1, with “Cell viability and inhibition rate were calculated: cell viability (%)=(OD mean of experimental well/OD mean of control well)×100%. Cell inhibition rate (%)=100%−cell viability (%). The fitting function was used to determine the IC50 of the drug concentration when the cell growth was inhibited by 50%. The experiment was in triplicate.” left out
# OCI-LY8 cells [2] = test: Animal experiment against lymphoma: subcutaneous OCI-LY8 tumors in nude mice; type: in vivo, BALB/C nude mice; conditions: 60 mg/kg every other day, caudal vein, 18 days
# Procedure: (1) Cell lines: human lymphoma cells (OCI-LY8 cells) (from ATCC, USA. The cells were passaged and preserved in the applicant's laboratory) were cultured in IMDM (containing 10% fetus bovine serum).
# (2) Experimental animals: referring to Example 2.
# (§5) The IMDM containing 3×10^6 OCI-LY8 cells was injected subcutaneously into the right axilla of the nude mice, and when the tumors grew to a measurable size, the mice were randomly assigned into the control group and the administration group. The nude mice in the administration group were injected through caudal vein with 4-hydroxy salicylanilide at 60 mg/kg ever other day. The nude mice in the control group were injected with the same volume of solvent (200 μL, 5% DMSO+4% castor oil+91% normal saline). The tumor sizes were measured every two days (measuring the length and width of the tumor, tumor volume=4π/3×(width/2)^2×(length/2)). The mice were sacrificed after a 18-day administration and the tumors were taken for taking photos.
# DB cells = test: CCK8 cytotoxicity, DB lymphoma cells; type: cell-based; conditions: Homo sapiens, 72 h
# Procedure: as §1, §2
# U2932 cells = test: CCK8 cytotoxicity, U2932 lymphoma cells; type: cell-based; conditions: Homo sapiens, 72 h
# Procedure: as §1, §2
# OCI-MY5 cells = test: CCK8 cytotoxicity, OCI-MY5 multiple myeloma cells; type: cell-based; conditions: Homo sapiens, 72 h
# Procedure: as §3, §4
# as §1, with “Cell viability and inhibition rate were calculated: cell viability (%)=(OD mean of experimental well/OD mean of control well)×100%. Cell inhibition rate (%)=100%−cell viability (%). The fitting function was used to determine the IC50 of the drug concentration when the cell growth was inhibited by 50%. The experiment was in triplicate.” left out
# [3] = molecular target: T1, Ribonucleotide reductase (RR) (Homo sapiens, UniProt P31350); conditions: shown in studies; cited from earlier work
# T1 sequence (P31350 1-389): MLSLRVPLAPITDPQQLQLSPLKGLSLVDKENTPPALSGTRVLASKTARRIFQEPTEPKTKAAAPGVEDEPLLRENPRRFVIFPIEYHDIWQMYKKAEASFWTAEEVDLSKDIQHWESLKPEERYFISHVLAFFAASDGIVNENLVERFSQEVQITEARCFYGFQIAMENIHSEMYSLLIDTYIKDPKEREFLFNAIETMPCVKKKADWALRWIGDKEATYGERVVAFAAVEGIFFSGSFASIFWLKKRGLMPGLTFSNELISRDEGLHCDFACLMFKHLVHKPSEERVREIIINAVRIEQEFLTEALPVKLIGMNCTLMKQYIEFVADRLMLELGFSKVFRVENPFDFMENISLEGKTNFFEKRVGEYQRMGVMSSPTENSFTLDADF
# OCI-LY8 cells [4] = test: CCK8 cytotoxicity, OCI-LY8 lymphoma cells; type: cell-based; conditions: Homo sapiens, 72 h
# Procedure: as §1, §2
# H929 cells [5] = test: Animal experiment for multiple myeloma: subcutaneous H929 tumors in nude mice; type: in vivo, BALB/C nude mice; conditions: 50 mg/kg per day, caudal vein
# Procedure: (1) Cell line: human multiple myeloma cells (H929 cells) (from ATCC, USA. The cells were passaged and preserved in the applicant's laboratory), were cultured in a 1640 culture medium (containing 10% fetus bovine serum).
# (2) Experimental animals: Male BALB/C nude mice (4-6 week old, purchased from Shanghai Sippr-BK laboratory animal Co. Ltd), were housed in an SPF condition (Center Laborotory Animal Room, Shanghai Tenth People's Hospital).
# The cells were cultured in 1640 a 1640 culture medium (containing 10% fetus bovine serum, pH 7.2) supplemented with 2 mmol/L glutamine. The resultant was cultured in a incubator at 37° C. under 5% CO2 environment.
# as §5, with “1640 medium” for “IMDM”, “3.5×10^6 H929” for “3×10^6 OCI-LY8”, “50” for “60”, “and 100 mg/kg per” for “ever other”, “volume=0.5×(width)^2×length).” for “volume=4π/3×(width/2)^2×(length/2)).”, “22-day” for “18-day”
compound,measurement,setting,value
O=C(Nc1ccc(O)cc1)c1ccccc1O,IC50,OCI-LY1 cells,117 µM
same,IC50,TMD8 cells,164 µM
same,IC50,H929 cells [1],179 µM
same,IC50,RPMI 8266 cells,170 µM
same,Inhibition of growth of lymphoma in nude mice (in words),OCI-LY8 cells [2],effectively inhibit the growth of lymphoma
same,IC50,DB cells,178 µM
same,IC50,U2932 cells,156 µM
same,IC50,OCI-MY5 cells,211 µM
same,Inhibition of Ribonucleotide reductase (in words),[3],inhibitor
same,IC50,OCI-LY8 cells [4],76 µM
same,"Tumor volume, individual mice No. 1-4",H929 cells [5]; day 0,0.08 cm^3 (2×) and 0.11 cm^3 and 0.10 cm^3
same,"Tumor volume, mean",H929 cells [5]; day 0,0.10 cm^3
same,"Tumor volume, individual mice No. 1-4",H929 cells [5]; day 2,0.15 cm^3 (2×) and 0.17 cm^3 and 0.11 cm^3
same,"Tumor volume, mean",H929 cells [5]; day 2,0.15 cm^3
same,"Tumor volume, individual mice No. 1-4",H929 cells [5]; day 4,0.24 cm^3 and 0.25 cm^3 and 0.22 cm^3 and 0.14 cm^3
same,"Tumor volume, mean",H929 cells [5]; day 4,0.21 cm^3
same,"Tumor volume, individual mice No. 1-4",H929 cells [5]; day 6,0.38 cm^3 (2×) and 0.30 cm^3 and 0.27 cm^3
same,"Tumor volume, mean",H929 cells [5]; day 6,0.33 cm^3
same,"Tumor volume, individual mice No. 1-4",H929 cells [5]; day 8,0.58 cm^3 and 0.50 cm^3 and 0.37 cm^3 (2×)
same,"Tumor volume, mean",H929 cells [5]; day 8,0.45 cm^3
same,"Tumor volume, individual mice No. 1-4",H929 cells [5]; day 10,0.77 cm^3 and 0.63 cm^3 and 0.64 cm^3 and 0.49 cm^3
same,"Tumor volume, mean",H929 cells [5]; day 10,0.63 cm^3
same,"Tumor volume, individual mice No. 1-4",H929 cells [5]; day 12,0.99 cm^3 and 0.78 cm^3 and 0.80 cm^3 and 0.74 cm^3
same,"Tumor volume, mean",H929 cells [5]; day 12,0.83 cm^3
same,"Tumor volume, individual mice No. 1-4",H929 cells [5]; day 14,1.20 cm^3 and 1.15 cm^3 and 0.97 cm^3 and 1.03 cm^3
same,"Tumor volume, mean",H929 cells [5]; day 14,1.09 cm^3
same,"Tumor volume, individual mice No. 1-4",H929 cells [5]; day 16,1.53 cm^3 and 1.47 cm^3 and 1.31 cm^3 and 1.35 cm^3
same,"Tumor volume, mean",H929 cells [5]; day 16,1.41 cm^3
same,"Tumor volume, individual mice No. 1-4",H929 cells [5]; day 18,2.08 cm^3 and 1.81 cm^3 and 1.54 cm^3 and 1.71 cm^3
same,"Tumor volume, mean",H929 cells [5]; day 18,1.79 cm^3
same,"Tumor volume, individual mice No. 1-4",H929 cells [5]; day 20,2.59 cm^3 and 2.22 cm^3 and 1.77 cm^3 and 2.12 cm^3
